Data: patent publication US20200377501A1, “DEGRADERS OF EGFR AND METHODS OF USE THEREOF” (DANA-FARBER CANCER INSTITUTE, INC., priority 2018, published 2020)
Like-named read-outs stand apart in the source and are kept apart here.

Key:
[1] = biological target: T1, EGFR T790M/L858R Ba/F3 cell line (Homo sapiens, UniProt P00533, T790M/L858R, cells depend on it); test: Ba/F3 cell proliferation (MTS assay); assay type: cell-based, murine; settings: for Remaining cell proliferation activity (% of control): EGFR T790M/L858R Ba/F3
T1 construct: The constructs were shuttled into the retroviral vector JP1540 using the BD Creator™ System (BD Biosciences)
T1 sequence (P00533 whole entry T790M/L858R): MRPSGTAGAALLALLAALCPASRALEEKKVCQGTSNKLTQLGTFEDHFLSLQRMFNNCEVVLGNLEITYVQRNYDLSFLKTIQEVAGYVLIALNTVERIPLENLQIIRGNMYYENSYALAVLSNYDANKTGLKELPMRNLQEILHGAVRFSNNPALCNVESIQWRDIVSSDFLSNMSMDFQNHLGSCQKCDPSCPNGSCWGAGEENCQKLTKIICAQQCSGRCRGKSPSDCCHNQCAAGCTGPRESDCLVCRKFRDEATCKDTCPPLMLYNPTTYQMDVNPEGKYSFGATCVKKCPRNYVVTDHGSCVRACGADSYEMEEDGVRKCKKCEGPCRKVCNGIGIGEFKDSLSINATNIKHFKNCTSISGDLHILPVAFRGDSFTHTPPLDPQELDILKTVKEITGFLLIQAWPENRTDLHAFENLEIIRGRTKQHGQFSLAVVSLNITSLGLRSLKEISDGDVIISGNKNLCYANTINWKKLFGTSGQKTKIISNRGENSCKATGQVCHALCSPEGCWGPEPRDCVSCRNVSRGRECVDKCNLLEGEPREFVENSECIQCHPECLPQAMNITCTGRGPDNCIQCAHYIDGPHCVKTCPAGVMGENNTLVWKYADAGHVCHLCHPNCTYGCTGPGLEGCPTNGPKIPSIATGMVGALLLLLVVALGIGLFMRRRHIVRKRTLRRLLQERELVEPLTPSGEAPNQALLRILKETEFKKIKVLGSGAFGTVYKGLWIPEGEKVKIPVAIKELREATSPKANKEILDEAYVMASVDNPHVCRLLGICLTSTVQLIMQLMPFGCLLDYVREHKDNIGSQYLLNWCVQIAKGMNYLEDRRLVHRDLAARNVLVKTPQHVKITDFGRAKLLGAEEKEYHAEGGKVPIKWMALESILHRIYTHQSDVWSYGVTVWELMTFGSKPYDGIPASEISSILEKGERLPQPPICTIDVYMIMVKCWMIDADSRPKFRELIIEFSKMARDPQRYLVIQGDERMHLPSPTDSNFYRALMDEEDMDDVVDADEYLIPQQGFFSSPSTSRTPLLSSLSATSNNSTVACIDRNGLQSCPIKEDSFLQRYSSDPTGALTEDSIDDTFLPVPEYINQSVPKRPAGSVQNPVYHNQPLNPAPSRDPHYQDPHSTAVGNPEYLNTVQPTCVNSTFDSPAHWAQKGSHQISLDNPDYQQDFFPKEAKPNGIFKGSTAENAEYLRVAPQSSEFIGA
Procedure: The EGFR mutant L858R, Del E746_A750, L858R/T790M, DelE746_A750/T790M, L858R/T790M/C797S and Del/T790M/C797S Ba/F3 cells were previously described (Zhou et al., Nature 462, (2009), 1070-1074). All cell lines were maintained in RPMI 1640 (Cellgro; Mediatech Inc., Herndon, Calif.) supplemented with 10% FBS 100 units/mL penicillin, 100 units/mL streptomycin, and 2 mM glutamine. L858R cells were maintained in ACL-4 media (Invitrogen, Carlsbad, Calif.) supplemented with 5% FBS, 100 units/mL penicillin, 100 units/mL streptomycin, and 2 mM glutamine. The EGFR 1941R mutation was introduced via site directed mutagenesis using the Quick Change Site-Directed Mutagenesis kit (Stratagene; La Jolla, Calif.) according to the manufacturer's instructions. All constructs were confirmed by DNA sequencing. The constructs were shuttled into the retroviral vector JP1540 using the BD Creator™ System (BD Biosciences). Ba/F3 cells were infected with retrovirus and according to standard protocols, as described previously (Zhou 2009). Stable clones were obtained by selection in puromycin (2 μg/ml).
Growth and inhibition of growth was assessed by MTS assay and was performed according to previously established methods (Zhou 2009). The MTS assay is a colorimetric method for determining the number of viable cells that is based on the bioreduction of MTS by cells to a formazan product that is soluble in cell culture medium and can be detected spectrophotometrically. […] All experimental points were set up in six wells and all experiments were repeated at least three times. […] The curves were fitted using anon-linear regression model with a sigmoidal dose response.

[2] = biological target: T2, recombinant EGFR T790M/L858R kinase (Homo sapiens, UniProt P00533, L858R/T790M); test: HTRF-based EGFR biochemical assay
T2 construct: Constructs spanning residues 696-1022 of the human EGFR; GST (cleaved yes); made in house; host or cells: Sf9 insect cells (pTriEX system)
T2 sequence (P00533 696-1022 T790M/L858R): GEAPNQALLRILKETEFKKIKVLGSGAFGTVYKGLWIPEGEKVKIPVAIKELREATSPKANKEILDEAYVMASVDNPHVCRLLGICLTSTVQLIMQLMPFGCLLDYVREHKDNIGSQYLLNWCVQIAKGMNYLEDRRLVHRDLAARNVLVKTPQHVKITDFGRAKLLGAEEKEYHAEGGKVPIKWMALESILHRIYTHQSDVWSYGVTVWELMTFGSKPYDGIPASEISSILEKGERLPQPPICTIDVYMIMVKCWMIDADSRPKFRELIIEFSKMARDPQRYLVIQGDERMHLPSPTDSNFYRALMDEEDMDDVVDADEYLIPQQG
Procedure: Constructs spanning residues 696-1022 of the human EGFR (including wild type and L858R, L858R/T790M, T790M, and T790M/V948R mutant sequences) were prepared in a GST-fusion format using the pTriEX system (Novagen) for expression in Sf9 insect cells essentially as described (Yun et al., PNAS 105, 2070-2075 (2008); Yun et al., Cancer Cell 11, 217-227 (2007)). EGFR kinase proteins were purified by glutathione-affinity chromatography followed by size-exclusion chromatography after cleavage with TEV or thrombin to remove the GST fusion partner following established procedures.
EGFR biochemical assays were carried out using a homogeneous time-resolved fluorescence (HTRF) assay as described previously. […] All reactions were carried out at room temperature in white ProxiPlate™ 384-well Plus plates (PerkinElmer) and were quenched with 5 μL of 0.2 M EDTA at 60 min.

[3] = absence of cetuximab, read-out: Ba/F3 cellular activity (EC50) T790M/L858R
[4] = read-out: Ba/F3 cellular activity (EC50) T790M/L858R + Cetuximab (1 μg/mL), presence of 1 μg/mL cetuximab
[5] = compound at 1 μM in the presence of 1 μg/mL cetuximab

Structure (SMILES)	EC50 [1, 3]	EC50 [1, 4]	Remaining cell proliferation activity (% of control) [1, 5]	Remaining cell proliferation activity (% of control) ([1]; compound at 1 μM)	IC50 [2]
O=C1c2cc(-c3ccc4[nH]ccc4c3)ccc2Nc2ccc(F)cc2N1Cc1nccs1 [I-10]	≥ 750 nM	≥ 750 nM	D (75 ≤ D)	D (75 ≤ D)	–
CCC(=O)Nc1ccc2c(c1)N(Cc1ccccc1)C(=O)c1cc(-c3ccc4[nH]ccc4c3)ccc1N2 [I-16]	250 to 500 nM	250 to 500 nM	–	–	–
CN1CCC(n2cc(-c3ccc4c(c3)C(=O)N(Cc3cccc(F)c3)c3cc(F)ccc3N4)cn2)CC1 [I-22]	≥ 750 nM	≥ 750 nM	–	–	–
O=C1c2cc(-c3ccc(N4CCNCC4)cc3)ccc2Nc2ccc(F)cc2N1Cc1ccccc1 [I-1, 10-Benzyl-8-fluoro-2-(4-(piperazin-1-yl)phenyl)-5,10-dihydro-11H-dibenzo[b,e][1,4]diazepin-11-one]	≥ 750 nM	500 to 750 nM	B (25 ≤ B < 50)	D (75 ≤ D)	< 250 nM
O=C1c2cc(-c3ccc4[nH]ccc4c3)ccc2Nc2ccc(F)cc2N1Cc1cccnc1 [I-9]	≥ 750 nM	≥ 750 nM	D (75 ≤ D)	D (75 ≤ D)	–
O=C1c2cc(-c3ccc(N4CCNCC4)cc3)ccc2Nc2ncc(F)cc2N1Cc1ccccc1 [I-12]	≥ 750 nM	≥ 750 nM	–	–	–
O=C1c2cc(-c3ccc(N4CCNCC4)cc3)ccc2Nc2ccccc2N1Cc1ccccc1 [I-11]	≥ 750 nM	250 to 500 nM	B (25 ≤ B < 50)	D (75 ≤ D)	–
O=C1c2cc(-c3ccc(N4CCNCC4)cc3)ccc2Nc2ccc(F)cc2N1Cc1nccs1 [I-7]	≥ 750 nM	≥ 750 nM	C (50 ≤ C < 75)	D (75 ≤ D)	–
O=C1c2cc(-c3ccc4[nH]ccc4c3)ccc2Nc2ccc(F)cc2N1Cc1ccccc1 [I-2]	≥ 750 nM	< 250 nM	B (25 ≤ B < 50)	D (75 ≤ D)	–
O=C1c2cc(-c3ccc(N4CCNCC4)cc3)ccc2Nc2ccc(F)cc2N1c1ccccc1 [I-5]	≥ 750 nM	≥ 750 nM	D (75 ≤ D)	D (75 ≤ D)	–
O=C1c2cc(-c3ccc4[nH]ccc4c3)ccc2Nc2ccc(F)cc2N1c1ccccc1 [I-8]	≥ 750 nM	≥ 750 nM	D (75 ≤ D)	D (75 ≤ D)	–
CN1CCN(c2ccc(-c3ccc4c(c3)C(=O)N(Cc3ccccc3)c3cc(F)ccc3N4)cc2)CC1 [I-17]	–	–	–	–	< 250 nM
CN1CCC(n2cc(-c3ccc4c(c3)C(=O)N(Cc3cc(F)cc(F)c3)c3cc(F)ccc3N4)cn2)CC1 [I-24]	≥ 750 nM	≥ 750 nM	–	–	–
O=C1c2cc(-c3ccc(N4CCNCC4)cc3)ccc2Nc2ccc(F)cc2N1Cc1ccc2cc[nH]c2c1 [I-19]	≥ 750 nM	≥ 750 nM	–	–	–
O=C1c2cc(-c3ccc(N4CCNCC4)cc3)ccc2Nc2ccc(F)cc2N1Cc1cccnc1 [I-6]	≥ 750 nM	≥ 750 nM	D (75 ≤ D)	D (75 ≤ D)	–

Results, then the compound that gave them:

EC50 [1, 3]	EC50 [1, 4]	Remaining cell proliferation activity (% of control) [1, 5]	Remaining cell proliferation activity (% of control) ([1]; compound at 1 μM)	IC50 [2]	Structure (SMILES)
≥ 750 nM	≥ 750 nM	–	–	–	CN1CCC(n2cc(-c3ccc4c(c3)C(=O)N(Cc3cccc(Cl)c3)c3cc(F)ccc3N4)cn2)CC1 [I-23]
≥ 750 nM	< 250 nM	B (25 ≤ B < 50)	D (75 ≤ D)	–	CN1CCC(n2cc(-c3ccc4c(c3)C(=O)N(Cc3ccccc3)c3cc(F)ccc3N4)cn2)CC1 [I-3]
≥ 750 nM	250 to 500 nM	A (0 ≤ A < 25)	D (75 ≤ D)	–	O=C1c2cc(-c3ccc(-c4cn[nH]c4)cc3)ccc2Nc2ccc(F)cc2N1Cc1ccccc1 [I-4]
≥ 750 nM	≥ 750 nM	–	–	–	CN1CCC(n2cc(-c3ccc4c(c3)C(=O)N(Cc3cccc5cc[nH]c35)c3cc(F)ccc3N4)cn2)CC1 [I-25]
≥ 750 nM	≥ 750 nM	–	–	–	Nc1ccc2c(c1)N(Cc1ccccc1)C(=O)c1cc(-c3ccc4[nH]ccc4c3)ccc1N2 [I-14]
≥ 750 nM	< 250 nM	–	–	–	O=C1c2cc(-c3ccc(N4CCNCC4)cc3)ccc2Nc2ccc(F)cc2N1Cc1cccc2cc[nH]c12 [I-18]
≥ 750 nM	≥ 750 nM	–	–	–	CC(=O)Nc1ccc2c(c1)N(Cc1ccccc1)C(=O)c1cc(-c3ccc4[nH]ccc4c3)ccc1N2 [I-15]
≥ 750 nM	≥ 750 nM	–	–	–	O=C1c2cc(-c3ccc(N4CCNCC4)cc3)ccc2Nc2ccncc2N1Cc1ccccc1 [I-13]
